Laboratory results taken from ChEMBL document CHEMBL1201862, “PubChem BioAssay data set” (2004).
Active and inactive are the calls of the source.

What was measured:
[1] = tested on: HEK293; experiment: cells; format: functional, cell-based; settings: Homo sapiens
[2] = molecular target: T1, Nuclear receptor subfamily 0 group B member 1 (Homo sapiens, UniProt P51843); experiment: Luminescence-based cell-based high throughput dose response assay for inhibitors of the orphan nuclear receptor subfamily 0, group B, member 1 (DAX1; NR0B1). [Related pubchem assays (depositor defined):AID504766, AID504790]; format: functional
T1 sequence (P51843 whole entry): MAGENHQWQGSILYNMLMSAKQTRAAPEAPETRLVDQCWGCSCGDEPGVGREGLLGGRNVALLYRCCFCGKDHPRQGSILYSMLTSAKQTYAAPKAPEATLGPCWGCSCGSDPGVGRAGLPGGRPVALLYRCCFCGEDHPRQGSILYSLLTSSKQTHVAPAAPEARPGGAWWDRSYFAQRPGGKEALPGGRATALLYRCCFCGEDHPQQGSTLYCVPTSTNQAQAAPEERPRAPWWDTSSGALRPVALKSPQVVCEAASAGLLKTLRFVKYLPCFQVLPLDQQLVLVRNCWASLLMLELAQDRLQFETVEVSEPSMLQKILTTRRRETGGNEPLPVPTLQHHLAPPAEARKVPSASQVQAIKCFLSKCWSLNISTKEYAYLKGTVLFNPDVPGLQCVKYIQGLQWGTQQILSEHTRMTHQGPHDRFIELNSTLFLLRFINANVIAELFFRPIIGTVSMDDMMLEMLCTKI

[3] = molecular target: Ephrin type-A receptor 4 (Mus musculus, UniProt Q03137); experiment: EphA4 ligand-binding antagonists – biochemical, colorimetric, mouse EphA4, primary screen (AID 689); format: functional
[4] = molecular target: Induced myeloid leukemia cell differentiation protein Mcl-1 (Homo sapiens, UniProt Q07820); format: functional
Sequence of Induced myeloid leukemia cell differentiation protein Mcl-1 (Q07820 whole entry): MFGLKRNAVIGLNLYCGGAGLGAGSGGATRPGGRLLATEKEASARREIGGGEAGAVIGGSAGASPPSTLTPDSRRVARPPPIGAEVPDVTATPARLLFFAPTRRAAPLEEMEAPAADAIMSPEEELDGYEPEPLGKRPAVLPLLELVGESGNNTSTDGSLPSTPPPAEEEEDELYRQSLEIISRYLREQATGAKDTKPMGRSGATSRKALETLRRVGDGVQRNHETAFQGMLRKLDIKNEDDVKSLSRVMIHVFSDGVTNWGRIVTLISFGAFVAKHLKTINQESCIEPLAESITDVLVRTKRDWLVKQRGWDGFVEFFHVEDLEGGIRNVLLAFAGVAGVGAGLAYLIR

[5] = molecular target: Eukaryotic translation initiation factor 4E (Mus musculus, UniProt P63073); experiment: blockers of eIF4G binding by eIF4E – biochemical, TR-FRET, dose response (AID 855); format: functional;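 further: potency for disrupting eIF4E binding to eIF4GI seen as loss of FRET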
[6] = molecular target: DNA (cytosine-5)-methyltransferase 1 (Homo sapiens, UniProt P26358); experiment: inhibition of DNA methylation by DNMT1 – biochemical, fluorescent molecular beacon, confirmation (AID 602386); format: functional
[7] = molecular target: T2, Rac GTPase-activating protein 1 (Homo sapiens, UniProt Q9H0H5); experiment: blockers of MgcRacGAP-driven Rac1 GTP hydrolysis – biochemical, ADP Hunter fluorescence, primary and confirmatory, confirmation (AID 624330); format: functional
T2 sequence (Q9H0H5 whole entry): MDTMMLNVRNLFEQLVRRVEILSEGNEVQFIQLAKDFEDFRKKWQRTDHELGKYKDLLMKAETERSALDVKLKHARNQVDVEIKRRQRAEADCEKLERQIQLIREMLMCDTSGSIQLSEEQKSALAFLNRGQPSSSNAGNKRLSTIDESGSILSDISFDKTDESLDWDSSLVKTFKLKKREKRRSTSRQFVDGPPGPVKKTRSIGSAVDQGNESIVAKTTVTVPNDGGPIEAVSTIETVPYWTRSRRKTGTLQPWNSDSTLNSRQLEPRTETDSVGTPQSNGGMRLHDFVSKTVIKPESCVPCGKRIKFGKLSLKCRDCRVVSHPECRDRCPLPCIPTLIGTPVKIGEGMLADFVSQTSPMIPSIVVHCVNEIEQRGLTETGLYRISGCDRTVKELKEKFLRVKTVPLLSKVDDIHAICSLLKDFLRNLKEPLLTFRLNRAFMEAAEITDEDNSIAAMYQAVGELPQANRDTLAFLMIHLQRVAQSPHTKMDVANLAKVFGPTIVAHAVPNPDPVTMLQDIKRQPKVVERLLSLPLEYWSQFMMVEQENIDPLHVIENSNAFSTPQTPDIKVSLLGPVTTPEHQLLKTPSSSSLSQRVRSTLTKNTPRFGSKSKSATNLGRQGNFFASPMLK

[8] = molecular target: Melanocortin receptor 4 (Homo sapiens, UniProt P32245); experiment: inhibitors of MC4R cAMP signaling – cell-based, TR-FRET, biased antagonists, dose response (AID 602298); format: functional;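 further: antagonist potency against agonist-stimulated cAMP production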
Sequence of Melanocortin receptor 4 (P32245 whole entry): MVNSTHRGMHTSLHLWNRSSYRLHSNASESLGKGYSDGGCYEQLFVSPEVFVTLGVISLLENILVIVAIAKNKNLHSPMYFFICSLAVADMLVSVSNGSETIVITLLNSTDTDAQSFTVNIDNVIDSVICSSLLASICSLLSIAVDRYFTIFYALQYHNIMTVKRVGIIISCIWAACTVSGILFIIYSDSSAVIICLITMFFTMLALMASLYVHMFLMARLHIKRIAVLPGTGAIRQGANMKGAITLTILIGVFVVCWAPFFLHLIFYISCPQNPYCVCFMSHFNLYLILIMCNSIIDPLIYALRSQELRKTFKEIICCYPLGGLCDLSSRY

[9] = cAMP pathway inhibition in counterscreen cell line – TR-FRET cAMP detection, counter-screen for MC4R biased antagonist project, dose response (AID 602305); format: functional, cell-based;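 further: U2OS cells stimulated with forskolin near its EC80 as the cAMP inducer; potency is for inhibition of forskolin-stimulated cAMP signaling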
[10] = molecular target: SWI/SNF-related matrix-associated actin-dependent regulator of chromatin subfamily A member 2 (Homo sapiens, UniProt P51531); experiment: Luminescence-based cell-based high throughput dose response assay to identify activators of the function of SWI/SNF related, matrix associated, actin dependent regulator of chromatin, subfamily a, member 2 (SMARCA2, BRM).; format: functional
[11] = Counterscreen for activators of the function of SWI/SNF related, matrix associated, actin dependent regulator of chromatin, subfamily a, member 2 (SMARCA2, BRM): Luminescence-based cell-based high throughput dose response assay to identify non-selective compounds using the VP16 reporter assay.; format: functional
[12] = molecular target: T3, Apoptotic protease-activating factor 1 (Homo sapiens, UniProt O14727); experiment: SAR analysis of small molecule Activators of Apaf-1 in a Fluorescent assay.; format: functional; settings: read-out: EC50_Mean;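 further: caspase-3 cleavage of fluorogenic Rh110 DEVD substrate downstream of apoptosome activation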
T3 sequence (O14727 whole entry): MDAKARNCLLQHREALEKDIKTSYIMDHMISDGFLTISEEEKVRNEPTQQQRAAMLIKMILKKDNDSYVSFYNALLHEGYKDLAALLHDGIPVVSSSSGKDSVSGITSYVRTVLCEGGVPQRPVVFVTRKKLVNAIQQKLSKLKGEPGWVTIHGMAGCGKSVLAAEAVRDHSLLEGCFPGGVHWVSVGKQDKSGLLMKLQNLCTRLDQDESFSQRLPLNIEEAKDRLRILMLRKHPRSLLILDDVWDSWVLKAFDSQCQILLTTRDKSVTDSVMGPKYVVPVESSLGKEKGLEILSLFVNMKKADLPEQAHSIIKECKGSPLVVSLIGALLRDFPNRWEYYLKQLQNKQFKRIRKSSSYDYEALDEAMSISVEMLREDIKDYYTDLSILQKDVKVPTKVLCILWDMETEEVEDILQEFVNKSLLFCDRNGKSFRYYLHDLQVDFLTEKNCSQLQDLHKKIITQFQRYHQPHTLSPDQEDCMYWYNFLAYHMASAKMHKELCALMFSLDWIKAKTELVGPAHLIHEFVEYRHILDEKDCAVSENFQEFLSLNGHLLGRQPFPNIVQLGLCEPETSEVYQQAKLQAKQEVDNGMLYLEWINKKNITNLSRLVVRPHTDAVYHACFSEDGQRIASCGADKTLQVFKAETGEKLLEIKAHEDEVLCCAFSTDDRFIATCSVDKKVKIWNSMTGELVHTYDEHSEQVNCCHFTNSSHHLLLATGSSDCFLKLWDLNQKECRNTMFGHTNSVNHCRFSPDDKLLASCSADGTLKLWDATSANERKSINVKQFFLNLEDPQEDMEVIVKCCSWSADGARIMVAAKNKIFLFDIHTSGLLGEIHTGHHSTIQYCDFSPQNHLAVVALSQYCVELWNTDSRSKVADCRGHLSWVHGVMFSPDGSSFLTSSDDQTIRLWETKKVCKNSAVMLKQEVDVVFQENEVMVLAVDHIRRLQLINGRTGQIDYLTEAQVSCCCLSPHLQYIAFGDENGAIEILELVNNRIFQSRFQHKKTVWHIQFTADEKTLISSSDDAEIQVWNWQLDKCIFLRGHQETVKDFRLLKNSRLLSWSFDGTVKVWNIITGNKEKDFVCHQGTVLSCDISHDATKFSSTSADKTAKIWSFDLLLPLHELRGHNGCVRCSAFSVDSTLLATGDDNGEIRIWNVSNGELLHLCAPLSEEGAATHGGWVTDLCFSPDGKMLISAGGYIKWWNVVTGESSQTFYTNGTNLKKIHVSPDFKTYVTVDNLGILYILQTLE

[13] = molecular target: Protein disulfide-isomerase (Homo sapiens, UniProt P07237); experiment: inhibition of PDI-driven insulin aggregation – biochemical, turbidity, absorbance, cherry-picked samples, dose response (AID 602350); format: functional
[14] = molecular target: Heat shock protein HSP 90-alpha (Homo sapiens, UniProt P07900); format: functional, organism-based
[15] = molecular target: Dual specificity tyrosine-phosphorylation-regulated kinase 1A (Rattus norvegicus, UniProt Q63470); format: biochemical, Homo sapiens
[16] = molecular target: 26S proteasome non-ATPase regulatory subunit 14 (Homo sapiens, UniProt O00487); experiment: inhibition of proteasome subunit RPN11 – biochemical, fluorescence polarization, uHTS hits, confirmation (AID 602368); format: functional
[17] = molecular target: 72 kDa type IV collagenase (Homo sapiens, UniProt P08253); experiment: Dose Response validation of uHTS RPN11 inhibitor hits using a MMP-2 Fluorescence assay.; format: functional
[18] = molecular target: Prothrombin (Bos taurus, UniProt P00735); experiment: thrombin protease inhibitors – biochemical, fluorescence polarization, uHTS hits, dose response (AID 602369); format: functional
[19] = reduction of Shn3 3'UTR-driven luciferase in osteoblasts – cell-based, Clone20 osteoblasts, firefly luciferase, cherry-picked, dose response (AID 624132); format: functional;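 further: firefly luciferase luminescence from reporter carrying the Shn3 3'UTR in osteoblasts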
[20] = loss of viability in HepG2 cells – cell-based, CellTiter-Glo, cherry-picked, cytotoxicity control for Shn3 inhibitor project, dose response (AID 624134); format: functional
[21] = non-specific 3'UTR reporter inhibition in Clone20-Shn3RL – cell-based, Renilla luciferase, cherry-picked, counter-screen for Shn3 inhibitor project, dose response (AID 624133); format: functional
[22] = tested on: Escherichia coli; experiment: microbe, parasite or virus in culture
[23] = molecular target: Ras and Rab interactor 1/Tyrosine-protein kinase ABL1 (Homo sapiens, UniProt P00519+Q13671); format: functional;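 further: biochemical TR-FRET dose-response test measuring inhibition of binding between Rin1 and Abl proteins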
[24] = molecular target: Tyrosine-protein kinase receptor TYRO3 (Homo sapiens, UniProt Q06418); format: functional;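 further: TYRO3 value obtained as one member of a kinome-wide profiling panel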
[25] = molecular target: LIM domain kinase 1 (Homo sapiens, UniProt P53667); experiment: Navigating the Kinome. Panel member name: LIMK1; format: functional
Sequence of LIM domain kinase 1 (P53667 whole entry, the tested form may be a part): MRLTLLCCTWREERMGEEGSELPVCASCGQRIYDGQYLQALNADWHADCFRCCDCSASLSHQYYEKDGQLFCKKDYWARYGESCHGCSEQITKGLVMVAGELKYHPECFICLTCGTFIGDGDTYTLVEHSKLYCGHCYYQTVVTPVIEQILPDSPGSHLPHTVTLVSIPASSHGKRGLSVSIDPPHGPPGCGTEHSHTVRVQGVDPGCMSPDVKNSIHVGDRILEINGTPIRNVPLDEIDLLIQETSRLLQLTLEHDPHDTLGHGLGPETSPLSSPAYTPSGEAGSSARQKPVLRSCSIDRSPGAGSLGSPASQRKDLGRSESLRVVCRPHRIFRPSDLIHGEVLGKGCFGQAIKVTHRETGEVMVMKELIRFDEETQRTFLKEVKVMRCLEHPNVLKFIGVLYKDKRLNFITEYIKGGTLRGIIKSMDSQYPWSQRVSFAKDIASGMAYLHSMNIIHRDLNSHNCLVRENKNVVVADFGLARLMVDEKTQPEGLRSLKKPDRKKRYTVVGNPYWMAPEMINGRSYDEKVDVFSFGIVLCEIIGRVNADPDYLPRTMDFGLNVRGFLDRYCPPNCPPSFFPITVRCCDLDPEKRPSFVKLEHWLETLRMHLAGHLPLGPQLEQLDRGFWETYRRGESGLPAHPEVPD

[26] = molecular target: Serine/threonine-protein kinase Chk1 (Homo sapiens, UniProt O14757); format: functional;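 further: measured as one member of a kinome-wide kinase profiling panel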
Sequence of Serine/threonine-protein kinase Chk1 (O14757 whole entry): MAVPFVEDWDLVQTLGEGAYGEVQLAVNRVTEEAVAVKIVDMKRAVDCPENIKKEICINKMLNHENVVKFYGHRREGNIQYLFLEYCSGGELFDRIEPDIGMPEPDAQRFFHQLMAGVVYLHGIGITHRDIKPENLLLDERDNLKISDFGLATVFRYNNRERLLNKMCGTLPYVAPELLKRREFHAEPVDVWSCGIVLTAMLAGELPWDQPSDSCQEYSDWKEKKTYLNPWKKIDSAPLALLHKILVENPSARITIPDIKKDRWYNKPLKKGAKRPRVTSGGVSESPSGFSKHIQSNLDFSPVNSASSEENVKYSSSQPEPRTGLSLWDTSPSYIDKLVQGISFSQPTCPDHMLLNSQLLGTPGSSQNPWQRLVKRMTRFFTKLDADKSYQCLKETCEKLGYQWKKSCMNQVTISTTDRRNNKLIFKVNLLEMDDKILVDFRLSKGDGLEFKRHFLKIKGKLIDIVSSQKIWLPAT

[27] = molecular target: Serine/threonine-protein kinase Nek2 (Homo sapiens, UniProt P51955); format: functional
[28] = molecular target: Dual specificity protein kinase CLK4 (Homo sapiens, UniProt Q9HAZ1); format: functional
[29] = molecular target: Aurora kinase A (Homo sapiens, UniProt O14965); format: functional;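 further: value from the Navigating the Kinome kinase panel profiling, panel entry STK6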
Sequence of Aurora kinase A (O14965 whole entry): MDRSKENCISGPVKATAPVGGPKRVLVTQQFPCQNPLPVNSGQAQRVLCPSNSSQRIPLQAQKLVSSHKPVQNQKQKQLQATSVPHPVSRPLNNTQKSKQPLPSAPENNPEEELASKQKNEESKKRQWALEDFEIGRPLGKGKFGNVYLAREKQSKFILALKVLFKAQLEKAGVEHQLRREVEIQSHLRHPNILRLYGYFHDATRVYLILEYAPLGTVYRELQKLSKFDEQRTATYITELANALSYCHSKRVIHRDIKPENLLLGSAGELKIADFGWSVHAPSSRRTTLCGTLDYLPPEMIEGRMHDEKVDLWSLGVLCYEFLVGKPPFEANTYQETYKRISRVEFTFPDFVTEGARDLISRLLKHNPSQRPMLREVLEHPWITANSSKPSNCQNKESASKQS

[30] = molecular target: Aurora kinase B (Homo sapiens, UniProt Q96GD4); format: functional
Sequence of Aurora kinase B (Q96GD4 whole entry): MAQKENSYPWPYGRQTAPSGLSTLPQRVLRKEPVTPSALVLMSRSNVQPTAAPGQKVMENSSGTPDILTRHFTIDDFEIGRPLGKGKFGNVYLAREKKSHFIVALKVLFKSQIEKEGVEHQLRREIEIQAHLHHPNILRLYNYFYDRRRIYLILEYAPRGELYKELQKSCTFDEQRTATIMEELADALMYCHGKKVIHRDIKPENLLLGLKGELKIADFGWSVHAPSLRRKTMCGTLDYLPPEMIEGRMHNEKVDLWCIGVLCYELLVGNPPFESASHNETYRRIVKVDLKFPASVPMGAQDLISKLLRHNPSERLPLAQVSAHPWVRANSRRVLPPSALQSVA

[31] = molecular target: Dual specificity mitogen-activated protein kinase kinase 1 (Homo sapiens, UniProt Q02750); experiment: Navigating the Kinome. Panel member name: MAP2K1; format: functional
Sequence of Dual specificity mitogen-activated protein kinase kinase 1 (Q02750 whole entry): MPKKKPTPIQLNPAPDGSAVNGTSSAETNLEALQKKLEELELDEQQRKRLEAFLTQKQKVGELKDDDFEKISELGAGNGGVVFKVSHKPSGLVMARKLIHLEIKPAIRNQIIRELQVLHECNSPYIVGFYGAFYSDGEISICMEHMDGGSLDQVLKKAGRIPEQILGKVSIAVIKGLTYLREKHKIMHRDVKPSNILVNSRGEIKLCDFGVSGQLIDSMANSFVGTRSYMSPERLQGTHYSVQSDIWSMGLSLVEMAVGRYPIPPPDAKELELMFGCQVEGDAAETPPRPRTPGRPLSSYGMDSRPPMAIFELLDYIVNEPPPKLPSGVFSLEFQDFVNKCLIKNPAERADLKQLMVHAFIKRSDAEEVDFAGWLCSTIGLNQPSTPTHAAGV

[32] = molecular target: Tyrosine-protein kinase JAK2 (Homo sapiens, UniProt O60674); format: functional;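 further: JAK2 tested as one member of a kinase panel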
Sequence of Tyrosine-protein kinase JAK2 (O60674 whole entry): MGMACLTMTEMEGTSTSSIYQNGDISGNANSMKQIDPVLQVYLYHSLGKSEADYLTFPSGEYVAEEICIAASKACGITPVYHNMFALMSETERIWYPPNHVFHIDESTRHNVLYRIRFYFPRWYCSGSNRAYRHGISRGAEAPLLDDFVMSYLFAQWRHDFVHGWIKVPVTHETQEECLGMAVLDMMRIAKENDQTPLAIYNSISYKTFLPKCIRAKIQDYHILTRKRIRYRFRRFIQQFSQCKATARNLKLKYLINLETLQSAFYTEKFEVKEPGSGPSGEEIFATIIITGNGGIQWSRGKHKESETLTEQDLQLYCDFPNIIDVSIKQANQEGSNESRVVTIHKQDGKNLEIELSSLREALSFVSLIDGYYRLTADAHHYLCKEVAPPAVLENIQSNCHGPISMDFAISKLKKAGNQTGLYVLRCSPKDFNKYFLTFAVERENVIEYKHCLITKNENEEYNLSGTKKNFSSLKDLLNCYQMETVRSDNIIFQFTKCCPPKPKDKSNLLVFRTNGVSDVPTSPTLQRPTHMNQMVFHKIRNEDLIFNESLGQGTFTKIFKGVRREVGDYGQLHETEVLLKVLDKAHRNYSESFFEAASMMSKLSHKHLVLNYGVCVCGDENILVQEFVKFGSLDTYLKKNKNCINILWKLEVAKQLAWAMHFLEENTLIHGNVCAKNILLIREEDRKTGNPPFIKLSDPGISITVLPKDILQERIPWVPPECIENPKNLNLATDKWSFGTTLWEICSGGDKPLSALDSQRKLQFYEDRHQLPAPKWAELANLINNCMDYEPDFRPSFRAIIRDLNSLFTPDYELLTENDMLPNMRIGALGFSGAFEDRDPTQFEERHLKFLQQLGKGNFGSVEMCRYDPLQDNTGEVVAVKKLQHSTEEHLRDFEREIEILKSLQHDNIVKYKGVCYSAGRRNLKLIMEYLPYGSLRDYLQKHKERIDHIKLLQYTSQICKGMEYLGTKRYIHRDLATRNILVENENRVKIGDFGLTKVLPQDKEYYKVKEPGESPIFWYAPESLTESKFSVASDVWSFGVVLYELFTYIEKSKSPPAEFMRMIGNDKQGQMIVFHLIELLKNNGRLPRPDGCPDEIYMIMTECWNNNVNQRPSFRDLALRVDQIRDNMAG

[33] = molecular target: Proto-oncogene tyrosine-protein kinase receptor Ret (Homo sapiens, UniProt P07949); format: functional;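 further: measured within a kinome-wide profiling panel, RET as the panel member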
[34] = molecular target: Mitogen-activated protein kinase kinase kinase kinase 2 (Homo sapiens, UniProt Q12851); format: functional;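 further: measured as one member of a kinome-wide kinase panel, with MAP4K2 as the panel entry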
Sequence of Mitogen-activated protein kinase kinase kinase kinase 2 (Q12851 whole entry): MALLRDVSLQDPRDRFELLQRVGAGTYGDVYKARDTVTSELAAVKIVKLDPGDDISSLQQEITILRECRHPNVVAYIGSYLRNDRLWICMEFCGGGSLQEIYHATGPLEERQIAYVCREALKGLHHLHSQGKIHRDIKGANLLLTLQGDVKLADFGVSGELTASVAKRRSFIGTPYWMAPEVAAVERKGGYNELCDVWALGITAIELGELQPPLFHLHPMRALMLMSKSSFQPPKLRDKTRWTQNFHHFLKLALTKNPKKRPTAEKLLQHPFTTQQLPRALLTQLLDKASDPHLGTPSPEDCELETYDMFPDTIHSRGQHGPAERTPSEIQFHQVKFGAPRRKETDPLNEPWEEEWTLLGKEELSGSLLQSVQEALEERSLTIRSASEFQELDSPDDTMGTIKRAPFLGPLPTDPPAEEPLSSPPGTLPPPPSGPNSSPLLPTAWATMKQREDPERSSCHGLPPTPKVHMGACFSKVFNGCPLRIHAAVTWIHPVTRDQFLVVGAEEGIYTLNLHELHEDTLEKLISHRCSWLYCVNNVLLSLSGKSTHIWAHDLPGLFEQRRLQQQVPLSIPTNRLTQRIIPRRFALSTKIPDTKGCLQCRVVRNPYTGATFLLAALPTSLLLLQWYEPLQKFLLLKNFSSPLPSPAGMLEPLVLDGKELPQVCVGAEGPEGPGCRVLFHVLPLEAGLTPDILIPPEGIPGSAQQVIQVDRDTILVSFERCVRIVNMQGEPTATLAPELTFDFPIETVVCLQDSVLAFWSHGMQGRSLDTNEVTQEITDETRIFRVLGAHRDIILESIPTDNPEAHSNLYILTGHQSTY

COc1cccc(CNC(=O)CCNS(=O)(=O)c2cccc3nsnc23)c1
IC50 [1]: > 67.5 µM (inactive) | IC50 [2]: > 67.5 µM (inactive)

C=CCOC(=O)c1cc(-c2ccc(/C=C3\C(=O)NC(=O)C(C#N)=C3C)o2)ccc1Cl
IC50 [3]: 1.45 µM (active) | IC50 [4]: 1.2 µM (active) | IC50 [5]: 12.8 µM (active) | IC50 [6]: 5 µM (active) | IC50 [7]: 229 µM (active)

O=C(C[S+]([O-])c1ccc(C(F)(F)F)cc1[N+](=O)[O-])Oc1ccc(Cl)cc1 (stereo not given)
IC50 [8]: > 64.6 µM (inactive) | IC50 [9]: > 64.6 µM (inactive) | EC50 [10]: > 91.2 µM (inactive) | EC50 [11]: > 91.2 µM (inactive)

Cc1ccc(N2C(=O)[C@@H]3C(c4ccc(F)cc4)=NO[C@@H]3C2=O)cc1
EC50 [12]: > 100 µM (inactive)

O=C(c1ccco1)N1CCN(Cc2cc(=O)oc3cc(O)ccc23)CC1
AC50 [13]: 19.5 µM (active)

O=C(NN1C(=O)/C(=C\c2ccc(O)c([N+](=O)[O-])c2)SC1=S)c1ccccc1Cl
AC50 [14]: 5.26 µM (active) | AC50 [15]: 3.01 µM (active) | IC50 [16]: 26.8 µM (active) | IC50 [17]: 31.1 µM (active) | IC50 [18]: 62.5 µM (active)

CCCCCCCN(c1ccccc1)[C@@H]1C[C@H]2CCCC(=O)N3CC[C@@H](C1)[C@@H]23
IC50 [8]: 7.91 µM (active) | AC50 [19]: 11.4 µM (active) | AC50 [20]: 46.4 µM (active) | AC50 [21]: 4.54 µM (active) | IC50 [9]: 22.6 µM (inactive) | AC50 [22]: 13.7 µM (active)

Cc1oc2nc(SCCCC(=O)NCCO)nc(N)c2c1C
IC50 [23]: 6.46 µM (active)

Cc1cc(Cl)ccc1Nc1ncccc1C(N)=O
IC50 [1]: > 67.5 µM (inactive) | IC50 [2]: > 67.5 µM (inactive)

COc1ccc(-c2cnnc(N/N=C/c3ccc(O)c(O)c3)n2)cc1
AC50 [15]: 0.482 µM (active) | IC50 [7]: 63.9 µM (active)

COc1cc(-c2ccc(=O)n(Cc3cccc(C)c3)n2)cc(OC)c1OC
Ki [24]: 2.51 µM (active) | Ki [25]: 1 µM (active) | Ki [26]: 1 µM (active) | Ki [27]: 3.16 µM (active) | Ki [28]: 2 µM (active)

Nc1ccc(-c2csc3ccnc(N)c23)cc1
Ki [29]: 1.26 µM (active) | Ki [30]: 0.2 µM (active)

O=C1CN=C(c2ccc(F)cc2)c2cn[nH]c2N1
Ki [31]: 79.4 µM (active) | Ki [32]: 100 µM (active) | Ki [33]: 79.4 µM (active) | Ki [34]: 63.1 µM (active)
